This is an account of results in patent publication US10059741B2 (priority 2015, dated 2018).

“And” between values parts separate entries of the source, which are not always exact repeats. Equal entries are not always repeated. Where two headings read alike, the source gives them in different places. Bridge positions count the residues as written; N and C are the ends. Square brackets hold non-standard residues; d marks the D form. Peptide text beside a SMILES is read from it. * marks the point of attachment. 5FAM = O=C1OC2(c3ccc(O)cc3Oc3cc(O)ccc32)c2ccc(C(=O)*)cc21; R8 = C=CCCCCCC[C@@](C)(N)C(=O)O; S5 = C=CCCC[C@](C)(N)C(=O)O; Nle = CCCC[C@H](N)C(=O)O; Aib = CC(C)(N)C(=O)O; βAla = NCCC(=O)O A value given as a limit tells only on which side of the number the result lay.

Series [1] can be described thus: in vitro. Conditions: dog.
For series [2], the system named is H3N2 Perth/16/2009. Description: microbe, parasite or virus in culture. The series is classed as cell-based, influenza A virus.
The test system of series [3] is H3N2 Perth/16/2009. Put plainly: microbe, parasite or virus in culture. The series is classed as cell-based, influenza A virus. The source holds these as a separate data set.
Series [4] relates to H1N1 California/07/2009. Put plainly: microbe, parasite or virus in culture. The series is classed as cell-based, influenza A virus.
The test system of series [5] is H1N1 California/07/2009. Put plainly: microbe, parasite or virus in culture. The series is classed as cell-based, influenza A virus. This is another data set of the same source.
Where [6] appears, read: CC50 (μM) H1N1 California/07/2009, Cell cytotoxicity (CC), run with H1N1 California/07/2009.
Where [7] appears, read: CC50 (μM) H3N2 Perth/16/2009, Cell cytotoxicity (CC), run with H3N2 Perth/16/2009.
Where [8] appears, read: CC50, MDCK cells, run with Influenza A H1N1 California/07/2009, Neutral Red.
[9] abbreviates: CC50, MDCK cells, run with Influenza A H1N1 California/07/2009, Visual.
Where [10] appears, read: read-out: EC50 (μM) H3N2 Perth/16/2009.
Where [11] appears, read: read-out: EC50 (μM) H1N1 California/07/2009.

For the compound `CCCC[C@H](NC(C)=O)C(=O)N[C@@H](CC(=O)O)C(=O)N[C@H](C(=O)N[C@@H](CC(N)=O)C(=O)N[C@@]1(C)CCCC=CCCC[C@@](C)(C(=O)N[C@@H](CC(C)C)C(=O)N[C@@H](CCCCN)C(=O)N[C@H](C(=O)NC(C)(C)C(=O)N[C@@H](C)C(=O)N[C@@H](C)C(N)=O)C(C)C)NC(=O)[C@H](CC(C)C)NC(=O)[C@H](CC(C)C)NC(=O)[C@H]([C@@H](C)O)NC1=O)C(C)C` [SP-2] (Ac-[Nle]DVN[S5]TLL[S5]LKV[Aib]AA-NH2; staple 5-9), the CC50 in series [1] (setting [6]), in series [1] (setting [7]), in series [1] (setting [8]) and in series [1] (setting [9]) was over 100 µM each time. The EC50 is 10 to 25 µM in series [2] (setting [10]); 25 to 50 µM in series [3] (setting [10]); over 50 µM in series [4] (setting [11]); 51 µM and 32 µM in series [5] (read-out: EC50); over 50 µM in series [5] (setting [11]).

On to `CCCC[C@H](NC(C)=O)C(=O)N[C@@H](CC(=O)O)C(=O)N[C@H](C(=O)N[C@@H](CC(N)=O)C(=O)N[C@]1(C)CCCCCCC=CCCC[C@@](C)(C(=O)N[C@@H](CCC(N)=O)C(=O)N[C@@H](C)C(=O)N[C@@H](CCC(N)=O)C(=O)N[C@@H](C)C(=O)N[C@@H](C)C(N)=O)NC(=O)[C@H](C)NC(=O)[C@H](CC(C)C)NC(=O)[C@H](Cc2ccccc2)NC(=O)[C@H](CC(C)C)NC(=O)[C@H](CC(C)C)NC(=O)[C@H]([C@@H](C)O)NC1=O)C(C)C` [SP-26] (Ac-[Nle]DVN[R8]TLLFLA[S5]QAQAA-NH2; staple 5-12), for which the CC50 in series [1] (setting [6]) was over 100 µM; in series [1] (setting [7]), over 100 µM; in series [1] (CC50, run with Influenza A H1N1 California/07/2009, Neutral Red), over 100 µM; in series [1] (CC50, run with Influenza A H1N1 California/07/2009, Visual), over 100 µM; in series [1] (CC50, run with Influenza A H3N2 Perth/16/2006 (so in the source), Neutral Red) it was over 100 µM; in series [1] (CC50, run with Influenza A H3N2 Perth/16/2006 (so in the source), Visual), over 100 µM. In addition, the EC50 in series [2] (Cytopathic effect/toxicity (Visual), MDCK cells, read-out: EC50 (μM) H3N2 Perth/16/2009) is 10 to 25 µM; in series [2] (Influenza A H3N2 Perth/16/2006 (so in the source), Drug Assay Visual, read-out: EC50), 14 µM; in series [3] (Cytopathic effect/toxicity (Neutral red), MDCK cells, read-out: EC50 (μM) H3N2 Perth/16/2009), 10 to 25 µM; in series [3] (Influenza A H3N2 Perth/16/2006 (so in the source), Drug Assay Neutral Red, read-out: EC50), 23 µM; in series [4] (Cytopathic effect/toxicity (Visual), MDCK cells, read-out: EC50 (μM) H1N1 California/07/2009), under 1.5 µM; in series [4] (Influenza A H1N1 California/07/2009, Drug Assay Visual, read-out: EC50) it was 0.75 µM. Moreover, the EC50 in series [5] (Cytopathic effect/toxicity (Neutral red), MDCK cells, read-out: EC50 (μM) H1N1 California/07/2009) was 1.5 to 10 µM; in series [5] (Influenza A H1N1 California/07/2009, Drug Assay Neutral Red, read-out: EC50), 2.1 µM.

As to `CC(=O)N[C@@H](Cc1ccccc1)C(=O)N[C@@H](CC(=O)O)C(=O)N[C@H](C(=O)N[C@@H](CC(N)=O)C(=O)N[C@@]1(C)CCCC=CCCC[C@@](C)(C(=O)N[C@@H](CC(C)C)C(=O)N[C@@H](CCCCN)C(=O)N[C@H](C(=O)NC(C)(C)C(=O)N[C@@H](C)C(=O)N[C@@H](CCC(N)=O)C(N)=O)C(C)C)NC(=O)[C@H](CC(C)C)NC(=O)[C@H](CC(C)C)NC(=O)[C@H]([C@@H](C)O)NC1=O)C(C)C` [SP-4] (Ac-FDVN[S5]TLL[S5]LKV[Aib]AQ-NH2; staple 5-9), the CC50 in series [1] (setting [6]), in series [1] (setting [7]), in series [1] (setting [8]) and in series [1] (setting [9]) was over 100 µM throughout. The EC50 is 25 to 50 µM in series [2] (setting [10]), 25 to 50 µM in series [3] (setting [10]), over 50 µM in series [4] (setting [11]) and over 50 µM in series [5] (setting [11]).

In the case of `CCCC[C@H](NC(=O)CCNC(=O)c1ccc2c(c1)C(=O)OC21c2ccc(O)cc2Oc2cc(O)ccc21)C(=O)N[C@@H](CC(=O)O)C(=O)N[C@H](C(=O)N[C@@H](CC(N)=O)C(=O)N[C@@]1(C)CCCC=CCCC[C@@](C)(C(=O)N[C@@H](CC(C)C)C(=O)N[C@@H](C)C(=O)N[C@H](C(=O)NC(C)(C)C(=O)N[C@@H](C)C(=O)N[C@@H](CCC(N)=O)C(N)=O)C(C)C)NC(=O)[C@H](CC(C)C)NC(=O)[C@H](CC(C)C)NC(=O)[C@H]([C@@H](C)O)NC1=O)C(C)C` [SP-5] ({5FAM-βAla}-[Nle]DVN[S5]TLL[S5]LAV[Aib]AQ-NH2; staple 5-9), the CC50 in series [1] (setting [6]), in series [1] (setting [7]), in series [1] (setting [8]) and in series [1] (setting [9]) was over 100 µM each time.
